Laboratory results: the NIST ThermoML archive (doi:10.1021/acs.jced.6b00526)
Numbers after ± are expanded uncertainties.

Tests used:
[1] = 100 kPa; for viscosity: Falling or rolling sphere viscometry; for mass density: Vibrating tube method
[2] = refractive index (Na D-line) (dimensionless); settings: 100 kPa, Standard Abbe refractometry
[3] = xn = mol fraction of the nth substance listed; settings: 100 kPa, Liquid, x1 = 1; for mass density: Vibrating tube method; for viscosity: Falling or rolling sphere viscometry
[4] = refractive index (Na D-line) (dimensionless); xn = mol fraction of the nth substance listed; settings: 100 kPa, Liquid, Standard Abbe refractometry, x1 = 1

SMILES | viscosity ([1]; 293.15 K, Liquid) | mass density ([1]; 293.15 K, Liquid) | viscosity ([1]; 298.15 K, Liquid) | viscosity ([1]; 303.15 K, Liquid) | refractive index ([2]; 288.15 K, Liquid) | refractive index ([2]; 293.15 K, Liquid) | refractive index ([2]; 298.15 K, Liquid) | refractive index ([2]; 303.15 K, Liquid) | refractive index ([2]; 308.15 K, Liquid) | refractive index ([2]; 313.15 K, Liquid) | refractive index ([2]; 318.15 K, Liquid) | mass density ([3]; 288.15 K) | viscosity ([3]; 293.15 K) | mass density ([3]; 293.15 K) | viscosity ([3]; 298.15 K) | viscosity ([3]; 303.15 K) | mass density ([3]; 318.15 K) | refractive index ([4]; 288.15 K) | refractive index ([4]; 293.15 K) | refractive index ([4]; 298.15 K) | other results
OCCO [1,2-ethanediol] | 21.13 ± 3.4 mPa·s | 1113.3 ± 4.5 kg/m3 | 17.24 ± 2.8 mPa·s | 14.23 ± 2.3 mPa·s | 1.432 ± 0.029 | 1.4306 ± 0.029 | 1.4294 ± 0.029 | 1.4282 ± 0.029 | 1.4269 ± 0.029 | 1.4257 ± 0.029 | 1.4244 ± 0.029 | – | – | – | – | – | – | – | – | – | mass density ([1]; 303.15 K, Liquid): 1106.8 ± 4.4 kg/m3; mass density ([1]; 313.15 K, Liquid): 1099.1 ± 4.4 kg/m3
OCCCCO [1,4-butanediol] | – | – | – | – | – | – | – | – | – | – | – | – | – | – | – | – | – | – | – | – | mass density ([1]; 288.15 K, Metastable liquid): 1018.6 ± 4.1 kg/m3; viscosity ([1]; 293.15 K, Metastable liquid): 90.7 ± 15 mPa·s; mass density ([1]; 293.15 K, Metastable liquid): 1016.3 ± 4.1 kg/m3; viscosity ([1]; 298.15 K, Metastable liquid): 69.89 ± 11 mPa·s; mass density ([1]; 298.15 K, Metastable liquid): 1012.9 ± 4.1 kg/m3; viscosity ([1]; 303.15 K, Metastable liquid): 55.24 ± 8.8 mPa·s; mass density ([1]; 303.15 K, Metastable liquid): 1009.9 ± 4 kg/m3; mass density ([1]; 308.15 K, Metastable liquid): 1006.9 ± 4 kg/m3; mass density ([1]; 313.15 K, Metastable liquid): 1003.2 ± 4 kg/m3; mass density ([1]; 318.15 K, Metastable liquid): 1000.8 ± 4 kg/m3; refractive index ([2]; 288.15 K, Metastable liquid): 1.447 ± 0.029; refractive index ([2]; 293.15 K, Metastable liquid): 1.4455 ± 0.029; refractive index ([2]; 298.15 K, Metastable liquid): 1.4441 ± 0.029; refractive index ([2]; 303.15 K, Metastable liquid): 1.4426 ± 0.029; refractive index ([2]; 308.15 K, Metastable liquid): 1.4412 ± 0.029; refractive index ([2]; 313.15 K, Metastable liquid): 1.4398 ± 0.029; refractive index ([2]; 318.15 K, Metastable liquid): 1.4384 ± 0.029
OCCCCCO [1,5-pentanediol] | 118.7 ± 19 mPa·s | 989.2 ± 4 kg/m3 | 86.79 ± 14 mPa·s | 68.3 ± 11 mPa·s | 1.4503 ± 0.029 | 1.449 ± 0.029 | 1.4478 ± 0.029 | 1.4466 ± 0.029 | 1.4454 ± 0.029 | 1.4441 ± 0.029 | 1.443 ± 0.029 | – | – | – | – | – | – | – | – | – | mass density ([1]; 288.15 K, Liquid): 992.2 ± 4 kg/m3; mass density ([1]; 298.15 K, Liquid): 986.2 ± 4 kg/m3; mass density ([1]; 303.15 K, Liquid): 983.2 ± 4 kg/m3; mass density ([1]; 308.15 K, Liquid): 980.3 ± 4 kg/m3; mass density ([1]; 313.15 K, Liquid): 977.4 ± 4 kg/m3; mass density ([1]; 318.15 K, Liquid): 974.8 ± 4 kg/m3
OCCCO [propan-1,3-diol] | 51.55 ± 8.3 mPa·s | 1053.2 ± 4.3 kg/m3 | 40.8 ± 6.5 mPa·s | 32.74 ± 5.3 mPa·s | 1.4407 ± 0.029 | 1.4393 ± 0.029 | 1.438 ± 0.029 | 1.4367 ± 0.029 | 1.4353 ± 0.029 | 1.434 ± 0.029 | 1.4327 ± 0.029 | – | – | – | – | – | – | – | – | – | mass density ([1]; 288.15 K, Liquid): 1056.2 ± 4.3 kg/m3; mass density ([1]; 298.15 K, Liquid): 1049.9 ± 4.3 kg/m3; mass density ([1]; 303.15 K, Liquid): 1046.7 ± 4.3 kg/m3; mass density ([1]; 308.15 K, Liquid): 1043.5 ± 4.3 kg/m3; mass density ([1]; 313.15 K, Liquid): 1040.4 ± 4.2 kg/m3; mass density ([1]; 318.15 K, Liquid): 1037.9 ± 4.2 kg/m3
O [water] | 0.949 ± 0.15 mPa·s | 998.3 ± 4 kg/m3 | 0.843 ± 0.14 mPa·s | 0.755 ± 0.12 mPa·s | 1.3338 ± 0.027 | 1.3331 ± 0.027 | 1.3325 ± 0.027 | 1.3318 ± 0.027 | 1.3312 ± 0.027 | 1.3305 ± 0.027 | 1.3299 ± 0.027 | – | – | – | – | – | – | – | – | – | mass density ([1]; 288.15 K, Liquid): 999.2 ± 4 kg/m3; mass density ([1]; 318.15 K, Liquid): 990.8 ± 4 kg/m3
O [water] + OCCCCCO | – | – | – | – | – | – | – | – | – | – | – | 999.2 ± 4 kg/m3 | 0.949 ± 0.15 mPa·s | 998.3 ± 4 kg/m3 | 0.843 ± 0.14 mPa·s | 0.755 ± 0.12 mPa·s | 990.8 ± 4 kg/m3 | 1.3338 ± 0.027 | 1.3331 ± 0.027 | 1.3325 ± 0.027 | refractive index ([4]; 303.15 K): 1.3318 ± 0.027; refractive index ([4]; 308.15 K): 1.3312 ± 0.027; refractive index ([4]; 313.15 K): 1.3305 ± 0.027; refractive index ([4]; 318.15 K): 1.3299 ± 0.027
O [water] + OCCCCO | – | – | – | – | – | – | – | – | – | – | – | 999.2 ± 4 kg/m3 | 0.949 ± 0.15 mPa·s | 998.3 ± 4 kg/m3 | 0.843 ± 0.14 mPa·s | 0.755 ± 0.12 mPa·s | 990.8 ± 4 kg/m3 | 1.3338 ± 0.027 | 1.3331 ± 0.027 | 1.3325 ± 0.027 | refractive index ([4]; 303.15 K): 1.3318 ± 0.027; refractive index ([4]; 308.15 K): 1.3312 ± 0.027; refractive index ([4]; 313.15 K): 1.3305 ± 0.027; refractive index ([4]; 318.15 K): 1.3299 ± 0.027
O [water] + OCCCO | – | – | – | – | – | – | – | – | – | – | – | 999.2 ± 4 kg/m3 | 0.949 ± 0.15 mPa·s | 998.3 ± 4 kg/m3 | 0.843 ± 0.14 mPa·s | 0.755 ± 0.12 mPa·s | 990.8 ± 4 kg/m3 | 1.3338 ± 0.027 | 1.3331 ± 0.027 | 1.3325 ± 0.027 | refractive index ([4]; 303.15 K): 1.3318 ± 0.027; refractive index ([4]; 308.15 K): 1.3312 ± 0.027; refractive index ([4]; 313.15 K): 1.3305 ± 0.027; refractive index ([4]; 318.15 K): 1.3299 ± 0.027
O [water] + OCCO | – | – | – | – | – | – | – | – | – | – | – | 999.2 ± 4 kg/m3 | 0.949 ± 0.15 mPa·s | 998.3 ± 4 kg/m3 | 0.843 ± 0.14 mPa·s | 0.755 ± 0.12 mPa·s | 990.8 ± 4 kg/m3 | 1.3338 ± 0.027 | 1.3331 ± 0.027 | 1.3325 ± 0.027 | refractive index ([4]; 303.15 K): 1.3318 ± 0.027; refractive index ([4]; 308.15 K): 1.3312 ± 0.027; refractive index ([4]; 313.15 K): 1.3305 ± 0.027; refractive index ([4]; 318.15 K): 1.3299 ± 0.027
